Consider two compounds from patent US20180125988A1, “TARGETED XTEN CONJUGATE COMPOSITIONS AND METHODS OF MAKING SAME” (AMUNIX OPERATING INC., priority 2014, published 2018).

For orientation: IC50 means the concentration at which inhibition is half-maximal. Lower therefore signals higher potency.

The conditions of series [1]: in Man; cited from earlier work.
In series [2] the test system is folate receptor-positive KB cell line. Put plainly: CellTiter-Glo anti-proliferation assay, 3xFA(γ),3xMMAE-XTEN on KB cells with or without folic acid competitor. Format: cell-based. The following applies: Homo sapiens, no folic acid competitor. Here is the method: The ability to selectively target and kill cells bearing folate receptors was evaluated. Test articles of free MMAE, a non-targeting 3xMMAE-XTEN conjugate (XTEN linked to toxin) and the folate receptor-targeted 3xFA(γ),3xMMAE-XTEN conjugate were evaluated in a CellTiter-Glo anti-proliferation assay using the folate receptor-positive KB cell line. As culture media contain high folic acid content, KB cells were grown in folic acid-free media containing 10% heat-inactivated fetal calf serum at 37° C., 5% CO2 for at least 7 days prior to the commencement of the cell viability experiment, This medium was also utilized for the execution of the experiment. In brief, KB cells were plated at 10,000 cells per well onto a 96-well microtiter assay plate. KB cells were allowed to adhere to the plate by an overnight incubation at 37° C., 5% CO2. The spent media was then removed and wells designated to contain folic acid competitor received assay medium containing folic acid, while wells not designated to have folic acid competitor received assay medium only. The plate was incubated for 30 min at 37° C., 5% CO2 before the assay media was aspirated and plate washed with assay media. […] After the appropriate incubation period, CellTiter-Glo reagent was added and the plate was read on a luminometer. The IC50 of each test article was determined using a 4 parameter logistic curve fit using GraphPad Prism.
(In general: Cellular ATP, detected with luciferase, serves as a proxy for viable cell number.)

Where a SMILES comes first, the peptide text is derived from it. [ ]: non-standard residue; d: D form. The star is where a group is joined. Dolaproine = CO[C@@H]([C@@H]1CCCN1)[C@@H](C)C(=O)O; Dil = CC[C@H](C)[C@H](NC)[C@@H](CC(=O)O)OC; X1 = C[C@@H](N*)[C@@H](O)c1ccccc1; NMeV = CN[C@H](C(=O)O)C(C)C

“pyroGlu-His-Trp-Ser-Tyr-Gly-Leu-Arg-Pro-Gly-NH2 [LHRH]”: in series [1], the half-life entry was “less than 4 minutes”.

In series [2], `CC[C@H](C)[C@@H]([C@@H](CC(=O)N1CCC[C@H]1[C@H](OC)[C@@H](C)C(=O)N[C@H](C)[C@@H](O)c1ccccc1)OC)N(C)C(=O)[C@@H](NC(=O)[C@@H](NC)C(C)C)C(C)C` [MMAE, monomethyl auristatin E] (H-[NMeV]V[Dil][Dolaproine]-X1) registered a half-maximal inhibitory concentration (IC50) of 0.8 nM.
